Assay results reported in paper PMC9721426, “Novel piperine-carboximidamide hybrids: design, synthesis, and antiproliferative activity via a multi-targeted inhibitory pathway” (Journal of Enzyme Inhibition and Medicinal Chemistry, 2022).

Key:
[1] = tested on: A-549 (epithelial cancer cell line); assay: Antiproliferative MTT assay, A-549; type: cell-based; details: Homo sapiens, A549; A-549, MTT; read-out: Antiproliferative activity IC50 ± SEM, A-549
Protocol: (§1) The MTT assay was performed using various cell lines in accordance with previously reported procedures[28]^,[29] to investigate the antiproliferative potential of VIa-k. Refer to Appendix A. […]
(§2) added (in 200 μL medium to yield a final concentration of 0.1% v/v) to the wells of plates. A single compound was designated with four wells followed by incubation of […]
(§3) After incubation, medium was removed completely from the plates followed by addition of MTT (0.4 mg/mL in medium) to each well and subsequent incubation of plates for 3h. MTT (along with the medium) was removed and DMSO (150μL) was added to each well of the culture plates, followed by vortexing and subsequent measurement of absorbance (at 540 nm) using microplate reader. The data are shown as percentage inhibition of proliferation in comparison with controls containing 4.2.1.2. Assay for antiproliferative effect […]
(§4) The percentage cytotoxicity of compounds was calculated using the following […]
(§5) Where ATC= Absorbance of treated cells and AC= Absorbance of control. […]
(§6) used as positive control in the assay. […]

[2] = MTT cell viability assay on normal mammary epithelial cells; type: cell-based; details: human, MCF-10A mammary epithelial cells, MCF-10A normal cells, 4 days incubation
Protocol: A human mammary gland epithelial (MCF-10A) normal cell line was used to perform the viability test. The viability of compounds VIa-k was determined using the MTT assay after 4 days of incubation with MCF-10A cells[26]^,[27].
The MTT assay was used to assess how the synthetic compounds impacted the viability of mammary epithelial cells (MCF-10A)[26]^,[27]. Appendix A. […]
4.2. Biological evaluation
4.2.1. Cytotoxic activity using MTT Assay and evaluation of IC50
MTT assay was carried out to study the effect of compounds on mammary epithelial cells (MCF-10A)26,27. The medium in which cells were propagated contained Dulbecco's modified Eagle's medium (DMEM)/ Ham's F-12 medium (1:1) supplemented with epidermal growth factor (20 ng/mL), hydrocortisone (500 ng/mL), insulin (10 μg/mL), 2 mM glutamine and 10% foetal calf serum. After every 2-3 days, the cells were passaged using trypsin ethylenediamine tetra acetic acid (EDTA). The cells were seeded at a density of 10^4 cells mL-1 in flat-bottomed culture plates containing 96 wells each. […]
A single compound was designated with four wells followed by incubation of plates for 96h at 37°C. After incubation, medium was removed completely from the plates followed by addition of MTT (0.4 mg/mL in medium) to each well and subsequent incubation of plates for 3h. MTT (along with the medium) was removed and DMSO (150μL) was added to each well of the culture plates, followed by vortexing and subsequent measurement of absorbance (at 540 nm) using microplate reader. […]

[3] = tested on: Panc-1 (pancreatic cancer cell line); assay: Antiproliferative MTT assay, Panc-1; type: cell-based; details: Homo sapiens; Panc-1, MTT; read-out: Antiproliferative activity IC50 ± SEM, Panc-1
Protocol: as §1, §2, §3, §4, §5, §6

[4] = tested on: MCF-7 (breast cancer cell line); assay: Antiproliferative MTT assay, MCF-7; type: cell-based; details: Homo sapiens, MCF7; MCF-7, MTT; read-out: Antiproliferative activity IC50 ± SEM, MCF-7
Protocol: as §1, §2, §3, §4, §5, §6

[5] = tested on: four human cancer cell lines (Panc-1, MCF-7, HT-29, A-549); assay: Antiproliferative MTT assay, average (GI50) over the four cancer cell lines; type: cell-based; details: for GI50: Homo sapiens, average of IC50 versus A-549, MCF-7, Panc-1, HT-29; for GI50 potency relative to VIi (less potent): ratio of GI50 values
Protocol: The average (GI50) versus the four cancer cell lines was chosen for ease of manipulation.
as §1, §2, §3, §4, §5, §6

[6] = tested on: HT-29 (colon cancer cell line); assay: Antiproliferative MTT assay, HT-29; type: cell-based; details: Homo sapiens; HT-29, MTT; read-out: Antiproliferative activity IC50 ± SEM, HT-29
Protocol: as §1, §2, §3, §4, §5, §6

BRAF^V600E = target: T1, BRAF^V600E (Mus musculus, UniProt P28028, V585E); assay: BRAF V600E kinase assay; type: biochemical; details: read-out: BRAF^V600E inhibition IC50 ± SEM
T1 construct: Mouse full-length GST-tagged BRAFV600E; GST; purchased Invitrogen PV3849
Protocol: An in vitro study was conducted to evaluate the anti-BRAF^V600E of VIc, VIf, VIg, VIi, and VIk[31]. […] An in vitro study[31] was conducted to evaluate the anti-BRAF^V600E of VIc, VIf, VIg, VIi, and Vik. See Appendix A.
4.2.1.4. BRAF kinase assay
V600E mutant BRAF kinase assay was performed to investigate the activity of the most […]
Mouse full-length GST-tagged BRAFV600E (7.5 ng, Invitrogen, PV3849) was pre-incubated with drug (1 µL) and assay dilution buffer (4 µL) for 60 min at 25 °C. In assay dilution buffer, a solution (5 µL) containing MgCl 2 (30 mM), ATP (200 µM), recombinant human full length (200 ng) […] N-terminal His-tagged MEK1 (Invitrogen) was added to start the assay, subsequent to incubation for 25 min at 25 °C. The assay was stopped using 5X protein denaturing buffer (LDS) solution (5 µL).
To further denature the protein, heat (70° C) was applied for 5 min.
NuPage gel plates (Invitrogen) were used to carry out electrophoresis (at 200 V). 10 µL of each reaction was loaded into the precast plates and electrophoresis was allowed to proceed. After completion of electrophoresis, the front part of the precast gel plate (holding hot ATP) was cut and afterw ards cast-off. The dried gel was developed using a […]
that containing no inhibitor served as positive control. […]

Human CDK2/A2 = Human CDK2/A2 (Homo sapiens, UniProt P24941); assay: CDK2 inhibitory assay
Protocol: Protein Kinase Assays. Human CDK2/A2 was purchased from New England Biolabs IC50 values for CDK2/A were determined according to the supplier’s instructions

EGFR = target: T2, EGFR (Homo sapiens, UniProt P00533); assay: EGFR-TK inhibitory assay; type: biochemical; details: for IC50: EGFR-TK assay, read-out: EGFR inhibition IC50 ± SEM
T2 construct: cytoplasmic domain (EGFR -CD, amino acids 645–1186); His6 (N); made in house; host or cells: Sf-9 insect cells (baculovirus, pBlueBacHis2B / pFASTBacHTc)
Protocol: 4.2.1.3. EGFR inhibitory assay
EGFR-TK assay was performed to evaluate the inhibitory potency of the tested compounds against EGFR30. Baculoviral expression vectors including pBlueBacHis2B […]
sequence comprised a sequence that encoded (His) 6. Sf-9 cells were infected for 72h for protein expression. The pellets of Sf-9 cells were solubilized in a buffer containing sodium vanadate (100 µM), aprotinin (10 µg/mL), triton (1%), HEPES buffer (50mM), ammonium molybdate (10 µM), benzamidine HCl (16 µg/mL), NaCl (10 mM), leupeptin (10 µg/mL) and pepstatin (10 µg/mL) at 0°C for 20 min at pH 7.4, followed by centrifugation for 20 min. To eliminate the non-specifically bound material, a Ni-NTA super flow packed column was used to pass through and wash the crude extract supernatant first with 10 mM and then with 100 mM imidazole. […]
NaCl (50 mM), HEPES (20 mM), glycerol (10%) and 1 µg/mL each of aprotinin, leupeptin and pepstatin for 120 min. The purification was performed either at 4 °C or on ice. To record autophosphorylation level, EGFR kinase assay was carried out on the basis of DELFIA/Time-Resolved Fluorometry. The compounds were first dissolved in DMSO […]
pH 7.4. Each compound (10 µL) was incubated with recombinant enzyme (10 µL, 5 ng for EGFR, 1:80 dilution in 100 mM HEPES) for 10 min at 25 °C, subsequent to the addition of 5X buffer (10 µL, containing 2 mM MnCl2, 100 µM Na3VO4, 20 mM HEPES and 1 mM DTT) and ATP-MgCl2 (20 µL, containing 0.1 mM ATP and 50 mM MgCl 2) and incubation for 1h. The negative and positive controls were included in each plate by the incuba tion of enzyme either with or without ATP -MgCl2. The liquid was removed after incubation and the plates were washed thrice using wash buffer. Europium -tagged antiphosphotyrosine antibody (75 µL, 400 ng) was added to each well followed by incubation of 1h a nd then washing of the plates using buffer. The enhancement solution was added to each well and the signal was recorded at excitation and emission […]
The autophosphorylation percentage inhibition by compounds was calculated using the following equation: […]
Using the curves of percentage inhibition of eight concentrations of each compound, IC 50

T2 sequence (P00533 669-1210): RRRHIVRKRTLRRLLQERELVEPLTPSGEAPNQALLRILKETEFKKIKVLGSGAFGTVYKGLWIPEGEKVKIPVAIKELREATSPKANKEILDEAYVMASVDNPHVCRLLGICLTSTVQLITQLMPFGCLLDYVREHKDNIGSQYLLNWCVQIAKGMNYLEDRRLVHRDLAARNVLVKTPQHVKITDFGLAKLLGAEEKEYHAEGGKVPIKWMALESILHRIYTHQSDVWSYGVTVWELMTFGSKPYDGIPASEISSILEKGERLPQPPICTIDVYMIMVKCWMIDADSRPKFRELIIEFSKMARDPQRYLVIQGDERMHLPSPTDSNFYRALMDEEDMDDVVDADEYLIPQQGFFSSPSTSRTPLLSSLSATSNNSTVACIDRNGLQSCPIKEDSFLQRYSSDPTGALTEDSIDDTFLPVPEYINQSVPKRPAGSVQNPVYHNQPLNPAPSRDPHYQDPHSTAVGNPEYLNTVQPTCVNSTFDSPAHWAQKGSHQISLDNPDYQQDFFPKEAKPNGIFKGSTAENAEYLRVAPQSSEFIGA
T1 sequence (P28028 whole entry V585E): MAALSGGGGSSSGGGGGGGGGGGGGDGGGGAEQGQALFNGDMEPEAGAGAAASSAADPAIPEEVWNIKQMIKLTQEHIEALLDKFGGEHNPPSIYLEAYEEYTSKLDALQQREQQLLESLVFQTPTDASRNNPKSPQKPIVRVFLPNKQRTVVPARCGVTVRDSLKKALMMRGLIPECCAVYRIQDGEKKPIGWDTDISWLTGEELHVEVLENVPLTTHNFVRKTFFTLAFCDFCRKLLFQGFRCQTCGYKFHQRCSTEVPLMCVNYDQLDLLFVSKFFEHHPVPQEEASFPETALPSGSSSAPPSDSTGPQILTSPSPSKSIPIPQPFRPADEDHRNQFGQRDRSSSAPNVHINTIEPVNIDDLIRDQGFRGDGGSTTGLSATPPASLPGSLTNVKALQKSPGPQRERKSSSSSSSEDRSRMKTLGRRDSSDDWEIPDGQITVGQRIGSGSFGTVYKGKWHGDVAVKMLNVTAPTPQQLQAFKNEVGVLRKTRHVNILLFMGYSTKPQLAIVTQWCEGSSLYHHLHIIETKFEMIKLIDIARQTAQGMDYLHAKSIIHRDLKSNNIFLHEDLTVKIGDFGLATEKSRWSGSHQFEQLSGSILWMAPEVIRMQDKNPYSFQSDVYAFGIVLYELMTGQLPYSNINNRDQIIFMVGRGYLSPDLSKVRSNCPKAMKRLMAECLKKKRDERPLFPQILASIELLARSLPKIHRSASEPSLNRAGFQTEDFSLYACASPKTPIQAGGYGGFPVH

| SMILES | IC50 [1] | viability at 4 days, 50 µM [2] | melting point | IC50 [3] | IC50 [4] | GI50 [5] | IC50 [6] | IC50 (BRAF^V600E) | IC50 (Human CDK2/A2) | IC50 (EGFR) | EGFR potency relative to erlotinib (lower) (EGFR; ratio of IC50 values) | GI50 potency relative to VIi (less potent) [5] |
| --- | --- | --- | --- | --- | --- | --- | --- | --- | --- | --- | --- | --- |
| Cc1ccc(C(N)=NOC(=O)/C=C/C=C/c2ccc3c(c2)OCO3)cc1 [VIe, N'-{[(2E,4E)-5-(2H-1,3-Benzodioxol-5-yl)penta-2,4-dienoyl]oxy}-4-methylbenzene-1-carboximidamide] | 69 ± 7 nM | 89% | 185 to 188 °C | 75 ± 7 nM | 73 ± 7 nM | 73 nM | 75 ± 7 nM |  |  |  |  |  |
| NC(=NOC(=O)/C=C/C=C/c1ccc2c(c1)OCO2)c1ccccc1 [VIa, N'-{[(2E,4E)-5-(2H-1,3-Benzodioxol-5-yl)penta-2,4-dienoyl]oxy}benzene carboximidamide] | 95 ± 10 nM | 89% | 175 to 177 °C | 104 ± 10 nM | 97 ± 10 nM | 100 nM | 105 ± 10 nM |  |  |  |  |  |
| NC(=NOC(=O)/C=C/C=C/c1ccc2c(c1)OCO2)c1cccc(Br)c1 [VIh, N'-{[(2E,4E)-5-(2H-1,3-benzodioxol-5-yl)penta-2,4-dienoyl]oxy}-3-bromobenzene-1-carboximidamide] | 61 ± 6 nM | 91% | 141 to 143 °C | 69 ± 6 nM | 64 ± 6 nM | 65 nM | 67 ± 6 nM |  |  |  |  |  |
| NC(=NOC(=O)/C=C/C=C/c1ccc2c(c1)OCO2)c1cccc(Cl)c1 [VIg, N'-{[(2E,4E)-5-(2H-1,3-benzodioxol-5-yl)penta-2,4-dienoyl]oxy}-3-chlorobenzene-1-carboximidamide] | 42 ± 5 nM | 87% | 163 to 165 °C | 49 ± 5 nM | 47 ± 5 nM | 47 nM | 49 ± 5 nM | 63 ± 6 nM | 20 ± 2 nM | 96 ± 6 nM | 1.2 fold |  |
| COc1ccc(C(N)=NOC(=O)/C=C/C=C/c2ccc3c(c2)OCO3)cc1 [VId, N'-{[(2E,4E)-5-(2H-1,3-Benzodioxol-5-yl)penta-2,4-dienoyl]oxy}-4-methoxybenzene-1-carboximidamide] | 50 ± 5 nM | 91% |  | 57 ± 5 nM | 52 ± 5 nM | 54 nM | 57 ± 5 nM |  |  |  |  | about 1.4 fold |
| COc1ccc(C(N)=NOC(=O)/C=C/C=C/c2ccc3c(c2)OCO3)cc1OC [VIi, N'-{[(2E,4E)-5-(2H-1,3-benzodioxol-5-yl)penta-2,4-dienoyl]oxy}-3,4-dimethoxybenzene-1-carboximidamide] | 36 ± 4 nM | 89% | 147 to 149 °C | 40 ± 4 nM | 39 ± 3 nM | 39 nM | 40 ± 4 nM | 72 ± 7 nM | 17 ± 2 nM | 120 ± 10 nM |  |  |
| NC(=NOC(=O)/C=C/C=C/c1ccc2c(c1)OCO2)c1ccc(Cl)cc1 [VIb, N'-{[(2E,4E)-5-(2H-1,3-Benzodioxol-5-yl)penta-2,4-dienoyl]oxy}-4-chlorobenzene-1-carboximidamide] | 55 ± 6 nM | 85% | 157 to 160 °C | 59 ± 6 nM | 57 ± 6 nM | 57 nM | 58 ± 6 nM |  |  |  |  |  |
| N/C(=N/OC(=O)/C=C/C=C/c1ccc2c(c1)OCO2)c1cccc2ccccc12 [VIj, N'-{[(2E,4E)-5-(2H-1,3-benzodioxol-5-yl)penta-2,4-dienoyl]oxy} naphthalene-1-carboximidamide] | 78 ± 8 nM | 85% |  | 84 ± 8 nM | 81 ± 8 nM | 83 nM | 88 ± 9 nM |  |  |  |  | 2 fold |
